In patent US11643388B2, “Inhibitors of alpha 2 beta 1 integrin and methods of use thereof” (The Regents of the University of California, priority 2020, dated 2023):
pIC50: −log10 of the molar value. In brackets after ≈: the same amount, converted by molar mass. Blank lines part the entries; values can stand above or below the molecule they belong to.

Key:
α2β1 [1] = target: T1, α2β1 (Homo sapiens, UniProt P05556+P17301); assay: α2β1 cell adhesion assay; type: cell-based
α4β1 = α4β1 (Homo sapiens, UniProt P05556+P13612); assay: α4β1 cell adhesion; type: cell-based
α2β1 [2] = target: T1, α2β1; assay: α2β1 cell adhesion; type: cell-based
Metabolic stability (h) = type: in vitro ADME, human; conditions: % remaining at 45 min
Plasma stability (h) = type: in vitro ADME, human; conditions: % remaining at 60 min
Caco-2 permeability = type: in vitro ADME; conditions: human; for Papp A→B: A-B direction; for Papp B→A: B-A direction
[3] = Kinetic solubility (aqueous); type: physicochemical; conditions: kinetic from dmso stock, read-out: Kinetic Solubility (Aq)

Chain of α4β1 (P13612 34-1032): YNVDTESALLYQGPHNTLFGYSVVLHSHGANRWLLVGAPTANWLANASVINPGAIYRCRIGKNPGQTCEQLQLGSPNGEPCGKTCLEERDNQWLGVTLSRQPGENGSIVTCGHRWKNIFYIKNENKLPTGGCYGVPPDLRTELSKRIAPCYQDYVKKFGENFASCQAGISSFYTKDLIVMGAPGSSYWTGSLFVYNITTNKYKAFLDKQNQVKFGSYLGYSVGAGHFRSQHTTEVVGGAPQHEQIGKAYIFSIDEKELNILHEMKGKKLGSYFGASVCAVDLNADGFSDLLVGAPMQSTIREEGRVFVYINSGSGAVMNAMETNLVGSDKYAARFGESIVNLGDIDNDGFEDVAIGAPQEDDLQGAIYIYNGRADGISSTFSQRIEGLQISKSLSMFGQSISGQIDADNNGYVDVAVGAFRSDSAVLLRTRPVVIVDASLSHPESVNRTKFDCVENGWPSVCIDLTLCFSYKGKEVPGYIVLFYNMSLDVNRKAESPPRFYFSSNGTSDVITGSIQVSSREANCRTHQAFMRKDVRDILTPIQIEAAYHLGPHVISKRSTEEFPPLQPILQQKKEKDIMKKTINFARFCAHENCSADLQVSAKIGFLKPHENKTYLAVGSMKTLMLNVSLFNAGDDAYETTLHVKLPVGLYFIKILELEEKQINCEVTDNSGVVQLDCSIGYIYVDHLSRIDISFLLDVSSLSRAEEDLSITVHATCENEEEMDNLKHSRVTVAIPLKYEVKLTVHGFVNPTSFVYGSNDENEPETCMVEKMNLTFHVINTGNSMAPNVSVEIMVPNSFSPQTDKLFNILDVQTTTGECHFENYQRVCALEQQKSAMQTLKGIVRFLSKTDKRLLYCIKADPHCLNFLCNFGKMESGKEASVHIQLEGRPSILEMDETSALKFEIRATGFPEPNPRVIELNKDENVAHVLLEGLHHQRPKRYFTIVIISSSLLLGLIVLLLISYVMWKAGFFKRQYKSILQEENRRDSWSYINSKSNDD
Chain of α4β1 (P05556 21-798): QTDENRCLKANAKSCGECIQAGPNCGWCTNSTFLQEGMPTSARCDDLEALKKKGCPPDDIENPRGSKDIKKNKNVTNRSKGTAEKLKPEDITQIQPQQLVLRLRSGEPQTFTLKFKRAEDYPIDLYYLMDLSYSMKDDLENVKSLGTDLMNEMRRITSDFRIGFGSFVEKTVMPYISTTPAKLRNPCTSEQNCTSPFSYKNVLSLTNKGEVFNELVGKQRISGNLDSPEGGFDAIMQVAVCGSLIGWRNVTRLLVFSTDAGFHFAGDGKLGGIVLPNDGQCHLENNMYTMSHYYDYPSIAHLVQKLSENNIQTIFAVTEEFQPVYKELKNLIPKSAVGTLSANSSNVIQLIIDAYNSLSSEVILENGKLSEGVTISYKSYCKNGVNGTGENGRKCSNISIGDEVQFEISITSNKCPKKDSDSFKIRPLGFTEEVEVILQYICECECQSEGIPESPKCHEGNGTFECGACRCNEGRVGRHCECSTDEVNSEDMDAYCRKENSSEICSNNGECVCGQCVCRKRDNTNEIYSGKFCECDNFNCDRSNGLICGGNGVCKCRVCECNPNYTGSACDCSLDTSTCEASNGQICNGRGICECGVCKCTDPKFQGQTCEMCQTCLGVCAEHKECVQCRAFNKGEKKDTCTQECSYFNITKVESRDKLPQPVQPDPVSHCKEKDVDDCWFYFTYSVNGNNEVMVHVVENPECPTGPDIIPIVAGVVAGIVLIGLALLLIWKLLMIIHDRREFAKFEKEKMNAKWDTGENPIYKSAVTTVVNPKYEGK
T1 sequence (P17301 30-1181): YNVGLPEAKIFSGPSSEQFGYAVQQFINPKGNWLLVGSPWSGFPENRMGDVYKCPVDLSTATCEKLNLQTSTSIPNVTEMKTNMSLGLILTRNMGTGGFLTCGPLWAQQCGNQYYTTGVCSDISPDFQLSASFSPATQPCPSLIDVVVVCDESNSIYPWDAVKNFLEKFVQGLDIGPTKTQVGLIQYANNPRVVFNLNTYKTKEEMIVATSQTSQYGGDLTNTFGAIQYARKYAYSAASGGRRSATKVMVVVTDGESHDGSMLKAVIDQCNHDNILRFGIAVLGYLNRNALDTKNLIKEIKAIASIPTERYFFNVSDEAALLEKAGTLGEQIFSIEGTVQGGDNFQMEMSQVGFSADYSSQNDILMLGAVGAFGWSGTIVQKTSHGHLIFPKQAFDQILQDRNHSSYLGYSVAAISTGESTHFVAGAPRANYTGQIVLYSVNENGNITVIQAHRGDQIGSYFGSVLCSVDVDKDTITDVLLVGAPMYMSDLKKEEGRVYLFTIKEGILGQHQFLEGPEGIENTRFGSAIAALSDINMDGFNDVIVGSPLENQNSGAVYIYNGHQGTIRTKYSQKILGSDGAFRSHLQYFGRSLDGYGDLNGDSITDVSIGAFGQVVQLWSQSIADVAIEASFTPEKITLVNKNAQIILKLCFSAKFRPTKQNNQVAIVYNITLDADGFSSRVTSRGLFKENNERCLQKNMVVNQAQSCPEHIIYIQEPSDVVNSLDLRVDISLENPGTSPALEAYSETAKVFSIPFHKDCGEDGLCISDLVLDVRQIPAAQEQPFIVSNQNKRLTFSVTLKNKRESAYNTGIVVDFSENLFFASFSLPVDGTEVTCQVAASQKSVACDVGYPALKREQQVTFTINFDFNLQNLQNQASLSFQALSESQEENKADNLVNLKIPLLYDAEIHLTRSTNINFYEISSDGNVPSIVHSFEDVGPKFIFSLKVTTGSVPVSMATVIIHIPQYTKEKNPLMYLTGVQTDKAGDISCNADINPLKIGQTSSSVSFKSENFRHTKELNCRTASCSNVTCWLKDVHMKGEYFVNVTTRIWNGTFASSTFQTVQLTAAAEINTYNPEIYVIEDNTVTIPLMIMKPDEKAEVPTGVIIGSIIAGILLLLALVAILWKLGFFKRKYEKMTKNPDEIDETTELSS
T1 sequence (P05556 21-798): as the sequence (P05556 21-798) above

pIC50 (α2β1 [1]): 5.30 to 6.00
SMILES: CCOC(=O)[C@H](CNC(=O)N[C@@H]1CCc2ccccc21)NC(=O)c1c(Cl)cc(C(=O)NCc2cccc(Cl)c2)cc1Cl [SU15210-0280, (S)-ethyl 2-(2,6-dichloro-4-(3-chlorobenzylcarbamoyl)benzamido)-3-(3-((R)-2,3-dihydro-1H-inden-1-yl)ureido)propanoate]

pIC50 (α2β1 [1]): > 6.30
SMILES: O=C(NC[C@H](NC(=O)c1c(Cl)cc(C(=O)NCc2ccc(Cl)c(Cl)c2)cc1Cl)C(=O)O)N[C@@H]1CCc2ccccc21 [SU15210-0291, (S)-2-(2,6-dichloro-4-(3,4-dichlorobenzylcarbamoyl)benzamido)-3-(3-((R)-2,3-dihydro-1H-inden-1-yl)ureido)propanoic Acid]

pIC50 (α2β1 [1]): < 5.30
SMILES: CN(Cc1ccccc1)C(=O)NC[C@H](NC(=O)c1c(Cl)cc2c(c1Cl)CCN(Cc1ccccc1)C2=O)C(=O)O [SU15210-0245-01, (2S)-2-[(2-benzyl-5,7-dichloro-1-oxo-3,4-dihydroisoquinoline-6-carbonyl)amino]-3-[[benzyl(methyl)carbamoyl]amino]propanoic Acid]

pIC50 (α2β1 [1]): > 6.30
SMILES: O=C(NC[C@H](NC(=O)c1c(Cl)cc(C(=O)NCc2cccc(F)c2)cc1Cl)C(=O)O)N[C@@H]1CCc2ccccc21 [SU15210-0289, (S)-2-(2,6-dichloro-4-(3-fluorobenzylcarbamoyl)benzamido)-3-(3-((R)-2,3-dihydro-1H-inden-1-yl)ureido)propanoic Acid]

pIC50 (α4β1): 4.43
pIC50 (α2β1 [2]): > 6.30
SMILES: O=C(NC[C@H](NC(=O)c1c(Cl)ccc(N2CC(c3ccccc3)C2)c1Cl)C(=O)O)N[C@@H]1CCc2ccccc21 [SU15210-0080-01, (S)-2-(2,6-dichloro-3-(3-phenylazetidin-1-yl)benzamido)-3-(3-((R)-2,3-dihydro-1H-inden-1-yl)ureido)propanoic Acid]

pIC50 (α2β1 [1]): < 5.30
SMILES: CN(Cc1ccccc1)C(=O)NC[C@H](NC(=O)c1c(Cl)cc2c(c1Cl)CCN(CC#CC1CC1)C2=O)C(=O)O [SU15210-0265, (S)-3-(3-benzyl-3-methylureido)-2-(5,7-dichloro-2-(3-cyclopropylprop-2-ynyl)-1-oxo-1,2,3,4-tetrahydroisoquinoline-6-carboxamido)propanoic Acid]

pIC50 (α4β1): 5.54
Met Stab(h) % rem/45 min (Metabolic stability (h)): 96.3%
Plasma Stab(h) % rem/60 min (Plasma stability (h)): 55.6%
Papp A→B (Caco-2 permeability): 0.2 ×10⁻⁶ cm/s
Papp B→A (Caco-2 permeability): 24.2 ×10⁻⁶ cm/s
pIC50 (α2β1 [2]): > 6.30
SMILES: O=C(NC[C@H](NC(=O)c1c(Cl)ccc(Nc2ncc3ccccc3n2)c1Cl)C(=O)O)N[C@@H]1CCc2ccccc21 [SU15210-0076-01, (S)-2-(2,6-dichloro-3-(quinazolin-2-ylamino)benzamido)-3-(3-((R)-2,3-dihydro-1H-inden-1-yl)ureido)propanoic Acid]

pIC50 (α2β1 [1]): > 6.30
SMILES: O=C(NC[C@H](NC(=O)c1c(Cl)cc(C(=O)NCc2cccc(C(F)(F)F)c2)cc1Cl)C(=O)O)N[C@@H]1CCc2ccccc21 [SU15210-0293, (S)-2-(2,6-dichloro-4-(3-(trifluoromethyl)benzylcarbamoyl)benzamido)-3-(3-((R)-2,3-dihydro-1H-inden-1-yl)ureido)propanoic Acid]

pIC50 (α4β1): 4.68
Met Stab(h) % rem/45 min (Metabolic stability (h)): 99.6%
Plasma Stab(h) % rem/60 min (Plasma stability (h)): 99.4%
Papp A→B (Caco-2 permeability): 3.2 ×10⁻⁶ cm/s
Papp B→A (Caco-2 permeability): 1.6 ×10⁻⁶ cm/s
pIC50 (α2β1 [2]): > 6.30
SMILES: O=C(NC[C@H](NC(=O)c1c(Cl)cc(C(=O)NCc2cccc(O)c2)cc1Cl)C(=O)O)N[C@@H]1CCc2ccccc21 [SU15210-0095-01, (S)-2-(2,6-dichloro-4-(3-hydroxybenzylcarbamoyl)benzamido)-3-(3-((R)-2,3-dihydro-1H-inden-1-yl)ureido)propanoic Acid]

pIC50 (α2β1 [1]): > 6.30
SMILES: N#Cc1cccc(CNC(=O)c2cc(Cl)c(C(=O)N[C@@H](CNC(=O)N[C@@H]3CCc4ccccc43)C(=O)O)c(Cl)c2)c1 [SU15210-0292, (S)-2-(2,6-dichloro-4-(3-cyanobenzylcarbamoyl)benzamido)-3-(3-((R)-2,3-dihydro-1H-inden-1-yl)ureido)propanoic Acid]

Papp A→B (Caco-2 permeability): 2.2 ×10⁻⁶ cm/s
Papp B→A (Caco-2 permeability): 5.53 ×10⁻⁶ cm/s
pIC50 (α2β1 [2]): > 6.30
SMILES: O=C(NC[C@H](NC(=O)c1c(Cl)cc(C(=O)NCc2cccc(Cl)c2)cc1Cl)C(=O)O)N[C@@H]1CCc2ccccc21 [SU15210-0185-01, (S)-2-(2,6-dichloro-4-(3-chlorobenzylcarbamoyl)benzamido)-3-(3-((R)-2,3-dihydro-1H-inden-1-yl)ureido)propanoic Acid]

solubility kinetic [3]: 66.9 µM (≈ 40.4 µg/mL)
Met Stab(h) % rem/45 min (Metabolic stability (h)): 72.3%
Plasma Stab(h) % rem/60 min (Plasma stability (h)): 85.84%
Papp A→B (Caco-2 permeability): 2.7 ×10⁻⁶ cm/s
Papp B→A (Caco-2 permeability): 20.1 ×10⁻⁶ cm/s
pIC50 (α2β1 [2]): > 6.30
SMILES: O=C(Cc1cccc(Cl)c1)Nc1ccc(Cl)c(C(=O)N[C@@H](CNC(=O)N[C@@H]2CCc3ccccc32)C(=O)O)c1Cl [SU15210-0099-01, (S)-2-(2,6-dichloro-3-(2-(3-chlorophenyl)acetamido)benzamido)-3-(3-((R)-2,3-dihydro-1H-inden-1-yl)ureido)propanoic Acid]

pIC50 (α4β1): 4.49
pIC50 (α2β1 [2]): > 6.30
SMILES: O=C(NC[C@H](NC(=O)c1c(Cl)ccc(NCCCc2ccccc2)c1Cl)C(=O)O)N[C@@H]1CCc2ccccc21 [SU15210-0098-01, (S)-2-(2,6-dichloro-3-(3-phenylpropylamino)benzamido)-3-(3-((R)-2,3-dihydro-1H-inden-1-yl)ureido)propanoic Acid]

pIC50 (α2β1 [1]): 6.00 to 6.30
SMILES: O=C(NC[C@H](NC(=O)c1c(Cl)cc(C(=O)NCc2cccc(Cl)c2)cc1Cl)C(=O)O)N[C@@H]1CCc2cc(Cl)ccc21 [SU15210-0294, (S)-3-(3-((R)-5-chloro-2,3-dihydro-1H-inden-1-yl)ureido)-2-(2,6-dichloro-4-(3-chlorobenzylcarbamoyl)benzamido)propanoic Acid]

pIC50 (α4β1): 4.68
pIC50 (α2β1 [2]): > 6.30
SMILES: O=C(CCc1ccccc1)Nc1ccc(Cl)c(C(=O)N[C@@H](CNC(=O)N[C@@H]2CCc3ccccc32)C(=O)O)c1Cl [SU15210-0124-01, (S)-2-(2,6-dichloro-3-(3-phenylpropanamido)benzamido)-3-(3-((R)-2,3-dihydro-1H-inden-1-yl)ureido)propanoic Acid]

pIC50 (α2β1 [1]): 5.30 to 6.00
SMILES: CN(Cc1ccccc1)C(=O)NC[C@H](NC(=O)c1c(Cl)cc2c(c1Cl)CCN(CC1CC1)C2=O)C(=O)O [SU15210-0251, (2S)-3-[[benzyl(methyl)carbamoyl]amino]-2-[[5,7-dichloro-2-(cyclopropylmethyl)-1-oxo-3,4-dihydroisoquinoline-6-carbonyl]amino]propanoic Acid]

pIC50 (α2β1 [1]): > 6.30
SMILES: COc1cccc(CNC(=O)c2cc(Cl)c(C(=O)N[C@@H](CNC(=O)N[C@@H]3CCc4ccccc43)C(=O)O)c(Cl)c2)c1 [SU15210-0290-01, (S)-2-(2,6-dichloro-4-(3-methoxybenzylcarbamoyl)benzamido)-3-(3-((R)-2,3-dihydro-1H-inden-1-yl)ureido)propanoic Acid]

pIC50 (α2β1 [1]): < 5.30
SMILES: O=C(NC[C@H](NC(=O)c1c(Cl)cc2c(c1Cl)CCN(Cc1cccc(Cl)c1)C2=O)C(=O)O)N[C@@H]1CCc2ccccc21 [SU15210-0243-01, (2S)-2-[[5,7-dichloro-2-[(3-chlorophenyl)methyl]-1-oxo-3,4-dihydroisoquinoline-6-carbonyl]amino]-3-[[(1R)-indan-1-yl]carbamoylamino]propanoic Acid]

pIC50 (α2β1 [1]): > 6.30
SMILES: CN(Cc1ccccc1)C(=O)NC[C@H](NC(=O)c1c(Cl)cc2c(c1Cl)CCN(Cc1cccc(Cl)c1)C2=O)C(=O)O [SU15210-0242-01, (S)-3-(3-benzyl-3-methylureido)-2-(5,7-dichloro-2-(3-chlorobenzyl)-1-oxo-1,2,3,4-tetrahydroisoquinoline-6-carboxamido)propanoic Acid]

Met Stab(h) % rem/45 min (Metabolic stability (h)): 65%
Plasma Stab(h) % rem/60 min (Plasma stability (h)): 108%
Papp A→B (Caco-2 permeability): 0.8 ×10⁻⁶ cm/s
Papp B→A (Caco-2 permeability): 6.8 ×10⁻⁶ cm/s
pIC50 (α2β1 [2]): > 6.30
SMILES: O=C(NC[C@H](NC(=O)c1c(Cl)cc2c(c1Cl)CCN(C(=O)c1ccccc1)C2)C(=O)O)N[C@@H]1CCc2ccccc21 [SU15210-0173-01]

Papp A→B (Caco-2 permeability): 2.2 ×10⁻⁶ cm/s
Papp B→A (Caco-2 permeability): 1.5 ×10⁻⁶ cm/s
pIC50 (α2β1 [2]): > 6.30
SMILES: CN(Cc1ccccc1)C(=O)NC[C@H](NC(=O)c1c(Cl)cc(C(=O)NCc2cccc(O)c2)cc1Cl)C(=O)O [SU15210-0186-01, (S)-3-(3-benzyl-3-methylureido)-2-(2,6-dichloro-4-(3-hydroxybenzylcarbamoyl)benzamido)propanoic Acid]

pIC50 (α2β1 [1]): < 5.30
SMILES: O=C(NC[C@H](NC(=O)c1c(Cl)cc2c(c1Cl)CCN(Cc1ccc(Cl)cc1)C2=O)C(=O)O)N[C@@H]1CCc2ccccc21 [SU15210-0244-01]

pIC50 (α2β1 [1]): 6.00 to 6.30
SMILES: CCOC(=O)[C@H](CNC(=O)N(C)Cc1ccccc1)NC(=O)c1c(Cl)cc2c(c1Cl)CCN(Cc1cccc(Cl)c1)C2=O [SU15210-0270-01, (S)-ethyl 3-(3-benzyl-3-methylureido)-2-(5,7-dichloro-2-(3-chlorobenzyl)-1-oxo-1,2,3,4-tetrahydroisoquinoline-6-carboxamido)propanoate]

pIC50 (α4β1): 4.08
pIC50 (α2β1 [2]): > 6.30
SMILES: CN(Cc1ccccc1)C(=O)NC[C@H](NC(=O)c1c(Cl)cccc1Cl)C(=O)O [SU15210-0167-01]
